Results from PubChem BioAssay (NCI).
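Abbreviation: GI50, concentration required for 50% inhibition of growth. Definition used: TGI = concentration required for complete inhibition of growth.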

Columns and labels:
Assay in all cases: NCI anticancer screen, dose series, 384-well format
[1] = tested on: COLO 205 colon
[2] = tested on: HOP-92 NSCLC
[3] = tested on: A549 NSCLC
[4] = tested on: LOX IMVI melanoma
[5] = tested on: M14 melanoma
[6] = tested on: SF-539 CNS
[7] = tested on: NCI-H460 NSCLC
[8] = tested on: 786-0 renal
[9] = tested on: MDA-MB-231 breast
[10] = tested on: SK-OV-3 ovarian
[11] = tested on: SF-295 CNS
[12] = tested on: SN12C renal
[13] = tested on: T-47D breast

SMILES: C[C@@H]1Cc2c(ccc3[nH]ncc23)[C@@H](c2ccc(NC3CN(CCCF)C3)cn2)N1CC(F)(F)F
- GI50 [1]: 16.1 µM
- TGI [1]: 29.7 µM
- GI50 [2]: 13 µM
- TGI [2]: 25.7 µM
- GI50 [3]: 27.5 µM
- TGI [3]: 77.6 µM
- GI50 [4]: 15.8 µM
- TGI [4]: 29.3 µM
- GI50 [5]: 16.3 µM
- TGI [5]: 29.9 µM
- GI50 [6]: 16.7 µM
- TGI [6]: 30.4 µM
- GI50 [7]: 15.6 µM
- TGI [7]: 29.3 µM
- GI50 [8]: 15.2 µM
- TGI [8]: 28.5 µM
- GI50 [9]: 14.2 µM
- TGI [9]: 28.7 µM
- GI50 [10]: 17.5 µM
- TGI [10]: 31.4 µM
- GI50 [11]: 17.7 µM
- TGI [11]: 31.6 µM
- GI50 [12]: 15.9 µM
- TGI [12]: 30.5 µM
- GI50 [13]: 10.9 µM
- TGI [13]: 22.9 µM
